Experimental data: ChEMBL document CHEMBL3286145, “Evaluation of the antiprion activity of 6-aminophenanthridines and related heterocycles” (Eur J Med Chem, 2014)
Active and inactive are the calls of the source. No cut-off for these calls is given here.

Experiments:
Saccharomyces cerevisiae [1] = test: Antiprion activity against yeast SB34 prion protein [URE3] at 50 nmole by colorimetric assay
Saccharomyces cerevisiae [2] = test: Antiprion activity against yeast STRg6 prion protein [PSI+] at 50 nmole by colorimetric assay

Structure (SMILES)	antiprion activity (active/not active) (Saccharomyces cerevisiae [1])	antiprion activity (active/not active) (Saccharomyces cerevisiae [2])
[N-]=[N+]=Nc1ccc2c(c1)c(N)nc1ccccc12	Active	Active
Nc1nc2ccccc2c2cc([N+](=O)[O-])ccc12	inactive	Active
Nc1nc2ccccc2c2ccc([N+](=O)[O-])cc12	Active	Active
Nc1nc2ccccc2c2c1CCCC2	Active	Active
Nc1nc2ccccc2c2cccc([N+](=O)[O-])c12	Active	Active
Nc1nc2ccccc2c2c1CC=CC2	Active	Active
Nc1nc2ncccc2c2ccccc12	inactive	inactive
Nc1nc2ccccc2c2cc(F)ccc12	Active	Active
Nc1nc2ccncc2c2ccccc12	inactive	inactive
Nc1nc2ccccc2c2ccccc12	Active	Active
Cc1ccc2c(N)nc3ccccc3c2c1	Active	Active
CC[C@H](CO)Nc1nc2ccccc2c2ccccc12	inactive	inactive
Cc1ccc2c(N)nc3ccccc3c2n1	inactive	inactive
Nc1ccc2c(c1)c(N)nc1ccccc12	inactive	Active
Cc1ccc2nc(N)c3ccccc3c2c1	inactive	Active
Nc1nc2ccccc2c2ccc(C(F)(F)F)cc12	Active	Active
Nc1nc2cccnc2c2ccccc12	inactive	inactive
CN[S+]([O-])c1ccc2c(N)nc3ccccc3c2c1 (stereo not given)	inactive	inactive
Nc1nc2ccc(OC(F)(F)F)cc2c2ccccc12	inactive	Active
Nc1nc2ccccc2c2cnccc12	inactive	inactive
Nc1nc2ccccc2c2ccc(F)cc12	Active	Active
COc1cc(OC)c2nc(N)c3ccccc3c2c1	inactive	Active
Nc1cccc2c1c(N)nc1ccccc12	Active	Active
Nc1nc2ccccc2c2cccc(F)c12	Active	Active
COc1ccc(CCNc2nc3ccccc3c3ccccc23)cc1OC	inactive	inactive
